The text below walks through data of patent publication US20060293374A1, “Substituted isothiazolones” (priority 2005, published 2006).

The subject of one assay is Neutrophil LTB4. Put plainly: Neutrophil LTB4 assay (calcium ionophore challenge, EIA). In kind it is cell-based. The settings on record: test concentration of 5 μM, human neutrophils, calcium ionophore 1 μM; for inhibition at 5 µM: Neutrophil, read-out: LTB4 percent inhibition. As for the experimental part: Neutrophils purified from human blood were resuspended in HBSS buffer containing calcium and magnesium to a cell density of 1×10^6/mL. Purified neutrophils were then incubated with test compounds at a test concentration of 5 μM for 15 min at 37° C. Following incubation, the cells were challenged with calcium ionophore (1 μM final) for 15 minutes at 37° C. Negative control wells were incubated with equal volume of vehicle. The reaction was stopped by transferring the plate to ice for 5 minutes. The plate was centrifuged at 1500 RPM for 5 min at 4° C. LTB4 was calculated in cell free supernatants by EIA (Assay Design Inc).

Assay [1] has as its system TXB2 Released by Human Platelets. Put plainly: Ionophore and arachidonic acid induced TXB2 released by human platelets (EIA). It is filed as cell-based. The settings on record: human platelet-rich plasma; for IC50: challenge with calcium ionophore (10 μM) or arachidonic acid (50 μM); for inhibition at 1 µM: test concentration of 1 μM, calcium ionophore or arachidonic acid challenge, read-out: TXB2 percent inhibition. As for the experimental part:
Ionophore and Arachidonic Acid Induced TXB2 Released by Human Platelets
The plate was incubated for 15 minutes at 37° C. Following incubation, platelets were challenged with calcium ionophore (final 10 μM) or arachidonic acid (AA) (final 50 μM) and the plate was further incubated at 37° C. for 15 min. The plate was transferred to an ice bed for 5 min in order to stop the reaction. Supernatants were assayed for TXB2 production by EIA (Assay Design Inc) after diluting with assay buffer (Assay Design Inc).

Usually inhibition stands for the share of the control response that was lost under treatment. A word on the IC50: it is the concentration at which inhibition is half-maximal. Regarding `O=c1cc(Cl)sn1CC1CCCc2ccccc21` (stereo not shown) [Cpd 4, 5-chloro-2-(1,2,3,4-tetrahydro-naphthalen-1-ylmethyl)-isothiazol-3-one], the inhibition at 5 µM with Neutrophil LTB4 came to 100%. Also, the IC50 in assay [1] was 3.3 µM.
For `O=c1c(Cl)c(Cl)sn1Cc1ccc(-c2csnn2)cc1` [Cpd 24, 4,5-dichloro-2-(4-[1,2,3]thiadiazol-4-yl-benzyl)-isothiazol-3-one], in that order: 52% and 0.5 µM.
For the molecule `COC(=O)c1ccc(Cn2sc(Cl)cc2=O)cc1` [Cpd 37, 4-(5-chloro-3-oxo-3H-isothiazol-2-ylmethyl)-benzoic acid methyl ester], the inhibition at 5 µM in the assay on Neutrophil LTB4 was found to be 95%. Also, the IC50 in assay [1] worked out at 0.5 µM.
Regarding `O=c1ccsn1Cc1csc(-c2ccccc2)n1` [Cpd 54, 2-(2-phenyl-thiazol-4-ylmethyl)-isothiazol-3-one], the inhibition at 5 µM in the assay with Neutrophil LTB4 came out at 96%. Also, the IC50 in assay [1] turned out to be 1.5 µM.
For the molecule `O=c1cc(Cl)sn1Cc1nc(-c2ccccc2)sc1Cl` [Cpd 52, 5-chloro-2-(5-chloro-2-phenyl-thiazol-4-ylmethyl)-isothiazol-3-one], the inhibition at 5 µM in the assay with Neutrophil LTB4 is 81%. Moreover, in assay [1], the IC50 amounted to 0.4 µM.
As for `O=c1cc(Cl)sn1Cc1ccc(-n2cccn2)cc1` [Cpd 56, 5-chloro-2-(4-pyrazol-1-yl)-benzyl-isothiazol-3-one], the LTB4 percent inhibition in the assay with Neutrophil LTB4 turned out to be 48%. The IC50 in assay [1] was determined as 0.8 µM.
As for `O=Cc1cccc(Cn2sc(Cl)cc2=O)c1` [Cpd 59, 5-chloro-2-(3-formylbenzyl)-isothiazol-3-one], the inhibition at 5 µM with Neutrophil LTB4 worked out at 96%. For the same molecule, in assay [1], the IC50 came to 0.6 µM.
Consider `O=c1cc(Cl)sn1Cc1cccc(-c2csnn2)c1` [Cpd 32, 5-chloro-2-(3-[1,2,3]thiadiazol-4-ylbenzyl)-isothiazol-3-one], for which the inhibition at 5 µM with Neutrophil LTB4 turned out to be 100%. In assay [1], the IC50 stood at 0.6 µM.
The like results for `Cc1nc(-c2cccc(-n3sc(Cl)cc3=O)c2)c(Cl)s1` [Cpd 44, 5-chloro-2-[3-(2-methyl-5-chloro-thiazol-4-yl)-phenyl]-isothiazol-3-one] were, in that order, 69% and 2 µM.
The like results for `Cc1nc(-c2cccc(-n3sc(Cl)cc3=O)c2)cs1` [Cpd 47, 5-chloro-2-[3-(2-methyl-thiazol-4-yl)-phenyl]-isothiazol-3-one] were, in that order, 100% and 1 µM.
Turning to `C=Cc1ccc(Cn2sc(Cl)cc2=O)cc1` [Cpd 27, 5-chloro-2-(4-vinyl-benzyl)-isothiazol-3-one], the inhibition at 5 µM in the assay with Neutrophil LTB4 was determined as 100%. Moreover, the IC50 in assay [1] is 0.8 µM.
`CC(=O)c1ccc(Cn2sc(Cl)c(Cl)c2=O)cc1` [Cpd 65, 4,5-dichloro-2-(4-acetylbenzyl)-isothiazol-3-one]: in the assay with Neutrophil LTB4, the inhibition at 5 µM was determined as 45%. Moreover, the IC50 in assay [1] came to 0.4 µM.
With `O=c1ccsn1Cc1ccc(-n2cccn2)cc1` [Cpd 58, 2-(4-pyrazol-1-yl)-benzyl-isothiazol-3-one], the LTB4 percent inhibition with Neutrophil LTB4 was determined as 100%. Also, the IC50 in assay [1] was found to be 1 µM.
In the case of `O=c1cc(Cl)sn1C1CCc2ccccc21` (stereo not shown) [Cpd 3, 5-chloro-2-indan-1-yl-isothiazol-3-one], the inhibition at 5 µM with Neutrophil LTB4 was 86%. In assay [1], the IC50 was 0.9 µM.
`O=c1cc(Cl)sn1Cc1cccc2ccccc12` [Cpd 1, 5-chloro-2-naphthalen-1-ylmethyl-isothiazol-3-one]: the inhibition at 5 µM in the assay with Neutrophil LTB4 is 99%. Besides, in assay [1], the IC50 came to 3 µM.
In the case of `O=c1cc(Cl)sn1Cc1csc2ccccc12` [Cpd 11, 2-benzo[b]thiophen-3-ylmethyl-5-chloro-isothiazol-3-one], in the assay on Neutrophil LTB4, the inhibition at 5 µM came to 100%. Besides, the inhibition at 1 µM in assay [1] is 68%.
For `CS(=O)(=O)c1ccc(Cn2sc(Cl)c(Cl)c2=O)cc1` [Cpd 29, 4,5-dichloro-2-(4-methanesulfonyl-benzyl)-isothiazol-3-one], in the assay on Neutrophil LTB4, the inhibition at 5 µM came to 64%. In addition, in assay [1], the IC50 was 0.3 µM.
Regarding `O=c1ccsn1Cc1csc2ccccc12` [Cpd 12, 2-benzo[b]thiophen-3-ylmethyl-isothiazol-3-one], the inhibition at 5 µM in the assay with Neutrophil LTB4 is 89%. Besides, in assay [1], the IC50 was 0.75 µM.
`O=c1ccsn1Cc1nc(-c2cccs2)sc1Cl` [Cpd 63, 2-(5-chloro-2-thiophen-2-yl-thiazol-4-ylmethyl)-isothiazol-3-one]: the inhibition at 5 µM in the assay on Neutrophil LTB4 was found to be 86%. In assay [1], the inhibition at 1 µM worked out at 42%.
On to `CC(=O)c1ccc(Cn2sccc2=O)cc1` [Cpd 25, 2-(4-acetylbenzyl)-isothiazol-3-one], for which the inhibition at 5 µM with Neutrophil LTB4 was determined as 54%. For the same molecule, the IC50 in assay [1] is 1 µM.
In the case of `O=c1c(Cl)c(Cl)sn1C(c1ccccc1)c1ccccn1` (stereo not shown) [Cpd 33, 4,5-dichloro-2-(phenyl-pyridin-2-yl-methyl)-isothiazol-3-one], the inhibition at 5 µM in the assay with Neutrophil LTB4 worked out at 95%. For the same molecule, in assay [1], the IC50 was found to be 0.2 µM.
In the case of `O=c1ccsn1Cc1csc(-c2cccs2)n1` [Cpd 64, 2-(2-thiophen-2-yl-thiazol-4-ylmethyl)-isothiazol-3-one], the inhibition at 5 µM with Neutrophil LTB4 was found to be 89%. In addition, the inhibition at 1 µM in assay [1] is 39%.
Regarding `O=c1ccsn1Cc1ccc2c(c1)CCO2` [Cpd 17, 2-(2,3-dihydro-benzofuran-5-ylmethyl)-isothiazol-3-one], the inhibition at 5 µM in the assay on Neutrophil LTB4 worked out at 39%. The IC50 in assay [1] stood at 5.8 µM.
For `O=c1cc(Cl)sn1Cc1ccc(S(=O)(=O)c2ccccc2)cc1` [Cpd 38, 5-chloro-2-(4-benzenesulfonyl-benzyl)-isothiazol-3-one], in that order: 93% and 0.9 µM.
`O=c1c(Cl)c(Cl)sn1Cc1ccc(C#Cc2cccc(Cl)c2)cc1` [Cpd 28, 4,5-dichloro-2-[4-(3-chlorophenylethynyl)-benzyl]-isothiazol-3-one]: the inhibition at 5 µM with Neutrophil LTB4 was 100%. In addition, in assay [1], the IC50 was 3.5 µM.
As to `O=c1ccsn1Cc1sc2ccccc2c1Cl` [Cpd 8, 2-(3-chloro-benzo[b]thiophen-2-ylmethyl)-isothiazol-3-one], the inhibition at 5 µM with Neutrophil LTB4 is 74%. For the same molecule, in assay [1], the half-maximal inhibitory concentration (IC50) amounted to 1.4 µM.
With `O=c1cc(Cl)sn1Cc1ccc(S(=O)(=O)c2ccc(F)cc2)cc1` [Cpd 36, 5-chloro-2-[4-(4-fluoro-benzenesulfonyl)-benzyl]-isothiazol-3-one], in the assay with Neutrophil LTB4, the inhibition at 5 µM is 56%. The IC50 in assay [1] was found to be 0.5 µM.
For `O=c1c(Cl)c(Cl)sn1Cc1ccc2ccccc2c1` [Cpd 15, 4,5-dichloro-2-naphthalen-2-ylmethyl-isothiazol-3-one], in that order: 75% and 0.33 µM.
With `CC(c1ccc(S(C)(=O)=O)cc1)n1sc(Cl)c(Cl)c1=O` (stereo not shown) [Cpd 30, 4,5-dichloro-2-[1-(4-methanesulfonyl-phenyl)-ethyl]-isothiazol-3-one], the inhibition at 5 µM in the assay with Neutrophil LTB4 came out at 100%. The IC50 in assay [1] came out at 0.2 µM.
Regarding `O=C(c1ccccc1)c1ccc(Cn2sc(Cl)c(Cl)c2=O)cc1` [Cpd 34, 4,5-dichloro-2-(4-benzoylbenzyl)-isothiazol-3-one], in the assay with Neutrophil LTB4, the inhibition at 5 µM was determined as 84%. For the same molecule, the IC50 in assay [1] stood at 0.4 µM.
As to `CCCCCS(=O)(=O)c1ccc(Cn2sc(Cl)cc2=O)cc1` [Cpd 41, 5-chloro-2-[4-(pentane-1-sulfonyl)-benzyl]-isothiazol-3-one], the inhibition at 5 µM with Neutrophil LTB4 came to 100%. In addition, in assay [1], the IC50 worked out at 0.5 µM.
In the case of `O=c1ccsn1Cc1cccc(-c2ccncc2)c1` [Cpd 50, 2-(3-pyridin-4-yl-benzyl)-isothiazol-3-one], the inhibition at 5 µM with Neutrophil LTB4 turned out to be 100%. The IC50 in assay [1] came out at 0.5 µM.
